# Results taken from patent US20120283293A1, “Methods of neuroprotection involving Prostaglandin E2 EP4 (PGE2 EP4) receptor activation” (The Board of Trustees of the Leland Stanford Junior …, priority 2011, published 2012).
# Test system: PKA activity in BV-2 cells
# Experiment: cAMP dependent protein kinase A (PKA) activity assay in BV-2 cells
# Format: cell-based, murine
# Conditions: H89 at 5 μM and 10 μM
# Description: PKA activity was determined using the PKA kinase activity assay kit (Assay designs, Ann Arbor, Mich.). Cells were harvested 3 minutes after stimulation, and ELISA was carried out according to the manufacturer's instructions. Kinase activity was calculated as (sample absorbance—blank absorbance)/μg protein and normalized to the average value of vehicle.
# Downstream signaling events for EP4, a […] receptor, were investigated in LPS treated BV-2 cells (see FIG. 3). […] The increase in PKA activity from EP4 receptor signaling was blocked with the PKA inhibitor H89 at doses of 5 μM and 10 μM (FIG. 3B).
smiles,measurement,value
O=S(=O)(NCCNC/C=C/c1ccc(Br)cc1)c1cccc2cnccc12 [H89],AE1-329-mediated increase in PKA activity,blocked
